Assay results: patent publication US6066619A, “Non-aqueous protic peptide formulations” (Alza Corporation, priority 1999, dated 2000)

Assay: Gelation of non-aqueous protic solvent formulations on adding polar aprotic solvent
Type: physicochemical
Details: adding polar aprotic solvents such as DMSO to non-aqueous protic solvent formulation
Text: Thus, these solvents have an anti-gellant effect.

Gelation of the formulation, prevents gelation:
CC(C)C[C@H](NC(=O)[C@@H](COC(C)(C)C)NC(=O)[C@H](Cc1ccc(O)cc1)NC(=O)[C@H](CO)NC(=O)[C@H](Cc1c[nH]c2ccccc12)NC(=O)[C@H](Cc1cnc[nH]1)NC(=O)[C@@H]1CCC(=O)N1)C(=O)N[C@@H](CCCNC(=N)N)C(=O)N1CCC[C@H]1C(=O)NNC(N)=O [goserelin]
CCNC(=O)[C@@H]1CCCN1C(=O)[C@H](CCCNC(=N)N)NC(=O)[C@H](CC(C)C)NC(=O)[C@@H](CC(C)C)NC(=O)[C@H](Cc1ccc(O)cc1)NC(=O)[C@H](CO)NC(=O)[C@H](Cc1c[nH]c2ccccc12)NC(=O)[C@H](Cc1c[nH]cn1)NC(=O)[C@@H]1CCC(=O)N1 [leuprolide]
calcitonin
